Measured values from patent publication US20130197073A1, “HYPOCHOLESTEROLEMIC, ANTI-INFLAMMATORY AND ANTIEPILEPTIC NEUROPROTECTIVE COMPOUND” (NEURON BIOPHARMA, S.A., priority 2010, published 2013).

Biological target: T1, 3-hydroxy-3-methylglutaryl coenzyme A reductase (HMGR) (Homo sapiens, UniProt P04035)
T1 sequence (P04035 340-888 limits assumed): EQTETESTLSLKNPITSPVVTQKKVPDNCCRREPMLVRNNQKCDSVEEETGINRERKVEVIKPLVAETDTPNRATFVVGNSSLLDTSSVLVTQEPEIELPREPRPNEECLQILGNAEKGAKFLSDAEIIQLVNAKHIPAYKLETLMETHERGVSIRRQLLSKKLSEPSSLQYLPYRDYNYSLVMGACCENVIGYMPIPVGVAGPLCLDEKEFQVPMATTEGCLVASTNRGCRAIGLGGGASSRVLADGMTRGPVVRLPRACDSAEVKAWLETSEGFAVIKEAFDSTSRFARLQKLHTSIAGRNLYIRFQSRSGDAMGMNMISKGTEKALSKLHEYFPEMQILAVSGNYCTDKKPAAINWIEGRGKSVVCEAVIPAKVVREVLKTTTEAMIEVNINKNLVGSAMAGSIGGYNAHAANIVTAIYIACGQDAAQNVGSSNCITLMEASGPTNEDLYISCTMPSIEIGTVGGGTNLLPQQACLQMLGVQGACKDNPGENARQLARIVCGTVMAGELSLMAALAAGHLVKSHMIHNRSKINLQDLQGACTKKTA
Experiment: Inhibition of HMGR enzyme activity in vitro, NADPH absorbance at 340 nm
Format: biochemical
Settings: active forms (activated with 0.1 N NaOH); five independent assays in duplicate
Method: The assay was carried out in a 96-well plate, with a total reaction volume of 200 μl.

For `CCCC(CCC)C(=O)O[C@H]1C[C@@H](C)C=C2C=C[C@H](C)[C@H](CC[C@@H]3C[C@@H](O)CC(=O)O3)[C@H]21` [NST0060, 2-propylpentanoic acid (1S,3R,7S,8S,8aR)-1,2,3,7,8,8a-hexahydro-3,7-dimethyl-8-[2-[(2R,4R)-tetrahydro-4-hydroxy-6-oxo-2H-pyran-2-yl]ethyl]-1-naphthalenyl ester], the IC50 was 0.126 ± 0.0346 µM.
